Patent publication US7037919B1, “Tetrahydroquinoline derivatives” (Kaken Pharmaceutical Co. Ltd., priority 1999, dated 2006)

What was measured:
[1] = system: orchiectomized (ORX) rats; test: Action of increasing prostate weight and bone mineral density in orchiectomized (ORX) rats (Test Example 4); format: in vivo, rat; conditions: 10 mg/kg s.c. once daily, 5 days weekly, 4 weeks, ORX SD rats, Mean ± SD
Experimental: Action of Increasing Prostate Weight and Bone Mineral Density in Orchiectomized (ORX) Rats
Orchiectomy was performed in 12-week-old male SD rats. From the next day postoperation, the positive control compound dihydrotestosterone (DHT, 10 mg/kg) and the compound of the present invention (Example 60, 60 mg/kg), each dissolved in a 5% dimethyl sulfoxide-containing olive oil solution, were subcutaneously injected once daily, 5 days weekly, for 4 weeks. On the next day after final administration, the wet weight of the ventral prostate was measured to evaluate the AR agonistic effect of the compound of the present invention. On the next day following final administration, moreover, the right femur was removed, and fixed overnight in a 10% neutrally buffered formalin solution. Then, the bone mineral density at the site ranging from the diaphysis to the proximal end was measured by the method of double energy X-ray absorption using a bone mineral content-measuring machine (Aloka, DCS-600) to evaluate increasing action of bone mineral density of the compound of the present invention.

AR = test: Assignment of compounds as having AR agonistic or AR antagonistic action (description, no method given); conditions: compounds named as usable for category A diseases
orchiectomized rats = test: Action of increasing prostate weight in orchiectomized rats (Test Example 2, printed 21); format: in vivo, rat; conditions: for Weight of prostate: orchiectomized SD rats, Mean ± SD
Experimental: Action of Increasing Prostate Weight in Orchiectomized Rats
Testes were removed from 8- to 12-week-old male SD rats. From 5 days postoperation, the compound of the present invention (3, 30 mg/kg), suspended in a 0.5% methyl cellulose solution, was subcutaneously injected once daily for a consecutive week, and 6 days weekly for 8 consecutive weeks. On the next day after final administration, the wet weight of the ventral prostate was measured to evaluate the in vivo AR agonistic effect of the compound of the present invention.

[2] = molecular target: T1, Rat androgen receptors (rat AR) (Rattus norvegicus, UniProt P15207); test: Test for competitive binding to rat androgen receptors; conditions: 3H-testosterone, rat prostate AR fraction; hydroxyflutamide taken as 100
T1 construct: from tissue; host or cells: prostate of orchiectomized male SD rats (100,000 x g supernatant)
T1 sequence (P15207 1-902): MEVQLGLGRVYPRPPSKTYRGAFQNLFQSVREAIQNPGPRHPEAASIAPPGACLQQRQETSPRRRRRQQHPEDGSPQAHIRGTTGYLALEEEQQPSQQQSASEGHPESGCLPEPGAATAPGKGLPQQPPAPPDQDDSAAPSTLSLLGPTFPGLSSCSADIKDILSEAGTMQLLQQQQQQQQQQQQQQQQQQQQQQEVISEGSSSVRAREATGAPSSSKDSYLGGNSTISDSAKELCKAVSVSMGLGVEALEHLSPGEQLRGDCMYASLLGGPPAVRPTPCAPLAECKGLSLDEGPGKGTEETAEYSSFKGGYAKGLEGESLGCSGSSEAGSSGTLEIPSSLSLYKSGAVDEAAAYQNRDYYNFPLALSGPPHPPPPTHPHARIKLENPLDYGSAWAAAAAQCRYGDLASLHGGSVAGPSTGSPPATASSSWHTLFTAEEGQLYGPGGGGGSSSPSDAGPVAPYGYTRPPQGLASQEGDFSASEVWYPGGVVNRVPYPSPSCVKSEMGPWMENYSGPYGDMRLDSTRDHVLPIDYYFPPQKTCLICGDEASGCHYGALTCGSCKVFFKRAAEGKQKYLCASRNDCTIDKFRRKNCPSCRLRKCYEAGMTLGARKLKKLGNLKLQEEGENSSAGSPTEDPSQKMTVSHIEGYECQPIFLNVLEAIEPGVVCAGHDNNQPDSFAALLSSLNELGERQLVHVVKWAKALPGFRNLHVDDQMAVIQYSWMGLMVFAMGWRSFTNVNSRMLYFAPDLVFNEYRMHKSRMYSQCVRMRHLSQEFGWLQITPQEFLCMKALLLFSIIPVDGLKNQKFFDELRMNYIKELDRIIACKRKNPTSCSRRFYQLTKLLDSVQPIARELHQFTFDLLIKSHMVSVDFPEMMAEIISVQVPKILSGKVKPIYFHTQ
Experimental: Test for Competitive Binding to Rat Androgen Receptors (Rat AR)
Preparation of rat AR fraction: Prostates were harvested into ice-cooled ET buffer (10 mM Tris, 1 mM EDTA, 5 mM DTT, 10 mM sodium molybdate, pH 7.4) 3 days after orchiectomy in 11-week-old male SD rats. The prostate was finely cut, and ET buffer was added, whereafter the mixture was homogenized using a homogenizer. The homogenate was ultracentrifuged (100,000×g, 60 min, 4° C.), and the supernatant was used as a rat AR fraction (hereinafter referred to as ARF).
Binding test: ^3H-testosterone (hereinafter referred to as ^3H-T) was diluted with ET buffer. Dihydrotestosterone (DHT) was prepared so as to have a concentration (final concentration 1 μM) 400 times the maximum concentration of ^3H-T (2.5 nM). The ^3H-T solution was added to a 1.5 ml tube containing DHT, no DHT, or the test compound with a varying concentration. Further, 200 μg ARF was added to adjust the final volume to 100 μl. The mixture was incubated for 2 hours at 4° C., and then 300 μl of a 0.05% dextran T70-1.0% activated carbon solution was added. The mixture was further incubated for 15 minutes in ice to remove the free ^3H-T. After centrifugation (4° C., 2,500 rpm, 5 min), 275 μl of the supernatant was harvested into a liquid scintillation vial, and 2 ml of clear-sol was added. The mixture was stirred, allowed to stand, and measured for ^3H radioactivity with a liquid scintillation counter.
Calculation of the relative binding inhibition rate: The binding inhibition rate (%) of the compound according to the present invention was calculated from the following equation, and the 50% inhibition concentration (IC50) was calculated by the probit analysis of the concentration-binding inhibition curve.
The relative binding inhibition rate (RBA: Relative Binding Affinity) was obtained from the following equation (Endocrinology 138, 863-870, 1997): RBA=100×(IC50 of hydroxyflutamide)/(IC50 of the compound of the present invention) • RBA's of the compounds of the present invention, calculated as above, are shown in Table 10.

[3] = system: orchiectomized (ORX) rats; test: Action of increasing prostate weight in orchiectomized (ORX) rats (Test Example 3); format: in vivo, rat; conditions: 30 mg/kg s.c. once daily for 8 days, ORX SD rats, Mean ± SD
Experimental: Action of Increasing Prostate Weight in Rats After Orchiectomized (ORX) Rats
Orchiectomy was performed in 8-week-old male SD rats. From 5 days postoperation, the compound of the present invention (Example 60, 30 mg/kg), dissolved in a 5% dimethyl sulfoxide-containing olive oil solution, was subcutaneously injected once daily for 8 days. On the next day after final administration, the wet weight of the ventral prostate was measured to evaluate the AR agonistic effect of the compound of the present invention.

Row | SMILES | RBA (Relative Binding Affinity = 100 x IC50 of hydroxyflutamide / IC50 of the compound) [2] | also measured
1 | C[C@]12CCC(=O)C[C@@H]1CC[C@@H]1[C@@H]2CC[C@]2(C)[C@@H](O)CC[C@@H]12 [DHT, dihydrotestosterone, reference compound] |  | Prostate weight [1]: 150 ± 14 mg/body weight 100 g; Bone mineral density ([1]; right femur): 131 ± 7 mg/cm^2
2 | CC(C)(CO)C1Nc2ccc([N+](=O)[O-])cc2C2C=CCC21 (stereo not drawn) [Example 1, 2-methyl-2-(8-nitro-3a,4,5,9b-tetrahydro-3H-cyclopenta[c]quinolin-4-yl)-propan-1-ol] | 4751 | AR agonistic action (AR): AR agonistic action; Weight of prostate (orchiectomized rats; 1-week treatment, 3 mg/kg s.c. once daily): 18 ± 4 mg/body weight (100 g); Weight of prostate (orchiectomized rats; 1-week treatment, 30 mg/kg s.c. once daily): 26 ± 3 mg/body weight (100 g); Weight of prostate (orchiectomized rats; 8-week treatment, 3 mg/kg s.c. 6 days weekly): 52 ± 8 mg/body weight (100 g); Weight of prostate (orchiectomized rats; 8-week treatment, 30 mg/kg s.c. 6 days weekly): 97 ± 14 mg/body weight (100 g); Prostate weights in comparison with the comparative example (orchiectomized rats; consecutively administered for 1 week (3, 30 mg/kg s.c.)): significantly increased prostate weights; Prostate weight relative to normal control (orchiectomized rats; duration of treatment extended to 8 weeks (3, 30 mg/kg s.c.)): restored the atrophied prostate up to the level of the normal control
3 | CC(C)(CO)C1Nc2cccc([N+](=O)[O-])c2C2C=CCC21 (stereo not drawn) [Example 7] | 65 | 
4 | COC(C)(C)C1Nc2ccc([N+](=O)[O-])cc2C2C=CCC21 (stereo not drawn) [Example 19] | 57 | 
5 | CC(C)(OCc1ccccc1)C1Nc2ccc([N+](=O)[O-])cc2C2C=CCC21 (stereo not drawn) [Example 21] | 74 | 
6 | CC(=O)OCC(C)(C)C1Nc2ccc([N+](=O)[O-])cc2C2C=CCC21 (stereo not drawn) [Example 23] |  | AR agonistic action (AR): AR agonistic action
7 | CC(C)(C)OC(=O)NCC(C)(C)C1Nc2ccc([N+](=O)[O-])cc2C2C=CCC21 (stereo not drawn) [Example 25] |  | AR agonistic action (AR): AR agonistic action
8 | CC(C)(CCl)C1Nc2ccc([N+](=O)[O-])cc2C2C=CCC21 (stereo not drawn) [Example 29] | 75 | 
9 | CC(C)(CO)C1Nc2ccc(C#N)cc2C2C=CCC21 (stereo not drawn) [Example 35, 4-(2-Hydroxy-1,1′-dimethyl-ethyl)-3a,4,5,9b-tetrahydro-3H-cyclopenta[c]quinoline-8-carbonitrile] | 236 | 
10 | CC(=O)OCC(C)(C)C1Nc2ccc(C#N)cc2C2C=CCC21 (stereo not drawn) [Example 40, acetic acid 2-(8-cyano-3a,4,5,9b-tetrahydro-3H-cyclopentatc[c]quinolin-4-yl)-2-methylpropyl ester] | 96 | 
11 | CC(=O)NCC(C)(C)C1Nc2ccc([N+](=O)[O-])cc2C2C=CCC21 (stereo not drawn) [Example 52] | 478 | 
12 | CC(C)C(=O)NCC(C)(C)C1Nc2ccc([N+](=O)[O-])cc2C2C=CCC21 (stereo not drawn) [Example 53] | 55 | 
13 | CC(C)(CNC(=O)c1ccccc1)C1Nc2ccc([N+](=O)[O-])cc2C2C=CCC21 (stereo not drawn) [Example 56] |  | AR agonistic action (AR): AR agonistic action
14 | CC(C)(CNS(C)(=O)=O)C1Nc2ccc([N+](=O)[O-])cc2C2C=CCC21 (stereo not drawn) [Example 59] | 2288 | 
15 | CC(C)(CNS(=O)(=O)c1ccc(F)cc1)C1Nc2ccc([N+](=O)[O-])cc2C2C=CCC21 (stereo not drawn) [Example 61] | 169 | 
16 | CC(=O)Nc1ccc(S(=O)(=O)NCC(C)(C)C2Nc3ccc([N+](=O)[O-])cc3C3C=CCC32)cc1 (stereo not drawn) [Example 63] | 580 | 
17 | CC(C)NC(=O)NCC(C)(C)C1Nc2ccc([N+](=O)[O-])cc2C2C=CCC21 (stereo not drawn) [Example 64, 1-isopropyl-3-[2-methyl-2-(8-nitro-3a,4,5,9b-tetrahydro-3H-cyclopenta[c]quinolin-4-yl)-propyl]urea] | 298 | 
18 | Cc1cccc(NC(=O)NCC(C)(C)C2Nc3ccc([N+](=O)[O-])cc3C3C=CCC32)c1 (stereo not drawn) [Example 65] |  | AR agonistic action (AR): AR agonistic action
19 | CC(C)(CNC(=O)Nc1ccc([N+](=O)[O-])cc1)C1Nc2ccc([N+](=O)[O-])cc2C2C=CCC21 (stereo not drawn) [Example 66] |  | AR agonistic action (AR): AR agonistic action
20 | CNC(=S)NCC(C)(C)C1Nc2ccc([N+](=O)[O-])cc2C2C=CCC21 (stereo not drawn) [Example 67] |  | AR agonistic action (AR): AR agonistic action
21 | CCNC(=S)NCC(C)(C)C1Nc2ccc([N+](=O)[O-])cc2C2C=CCC21 (stereo not drawn) [Example 68] | 491 | 
22 | CC(C)NC(=S)NCC(C)(C)C1Nc2ccc([N+](=O)[O-])cc2C2C=CCC21 (stereo not drawn) [Example 69] | 244 | Weight of prostate [3]: 21 ± 2 mg/body weight 100 g
23 | CC(=O)SCC(C)(C)C1Nc2ccc([N+](=O)[O-])cc2C2C=CCC21 (stereo not drawn) [Example 76, thioacetic acid S-[2-methyl-2-(8-nitro-3a,4,5,9b-tetrahydro-3H-cyclopenta[c]quinolin-4-yl)propyl]ester] | 131 | 
24 | CC(C)(O)C(=O)Nc1ccc([N+](=O)[O-])c(C(F)(F)F)c1 [Hydroxyflutamide, hydroxyflutamide, reference compound] | 100 | 
